# Assay results: US11766419B2, “Mebeverine as soluble epoxide hydrolase inhibitor” (Banasthali Vidyapith, priority 2021, dated 2023)
# Where “and” joins values, the source holds several entries; their conditions need not be identical. Equal values may be shown once.
# Tests used:
# [1] = system: isolated rat aortic strip; assay: Ex-vivo relaxation of KCl pre-constricted isolated rat aortic strip; conditions: aortic rings constricted with 80 mmol KCl
# Description: Aortic rings were suspended in organ baths containing a modified Krebs buffer and bubbled with a mixture of 95% O2/5% CO2. Rings were connected to an isometric force transducer, resting tension was set to 5 g and constricted with 80 mmol KCl. The relaxation of these pre-constricted aortic trips at different concentrations of mebeverine (10^−9-10^−[…]) are tabulated in Table 2 and plotted in FIG. 2.
# [2] = system: angiotensin-II induced hypertensive rats; assay: Angiotensin II induced hypertension, blood pressure; type: in vivo, rat
# Description: Wistar albino male rats were divided into four experimental groups (I, II, III and IV). Groups II-IV were infused with Angiotensin II at a continuous rate via subcutaneously implanted osmotic mini pump for 7 days. After induction of high blood pressure, (>140/90 mm of Hg), Groups III and IV were administered with mebeverine twice daily for five consecutive days at 10 mg/kg and 20 mg/kg doses respectively. At the end of this experimental period SAP, DAP and MAP were measured. The results are tabulated below in Tables 3A, 3B, and 3C, respectively, and are plotted in FIGS. 3a, 3b and 3c.
# [3] = system: DOCA-induced hypertensive rats; assay: DOCA induced hypertension, blood pressure; type: in vivo, rat
# Description: Wistar albino male rats were divided into four experimental groups (I, II, III and IV). Groups (II-IV) were administered with DOCA (20 mg/kg in 5% DMSO) intraperitoneally and drinking water was replaced by 2% NaCl. After induction of high blood pressure, Groups III and IV were treated with 10 mg/kg and 20 mg/kg mebeverine orally, respectively. At the end of this experimental period SAP, DAP and MAP were measured. The results are tabulated below in Tables 4A, 4B and 4C, respectively, and are plotted in FIGS. 4a, 4b and 4c.
# [4] = system: DOCA-induced hypertensive rats; assay: SOD and TBAR level in heart and aortic tissue, DOCA induced hypertension; type: in vivo, rat
# Description: Wistar albino male rats were divided into four experimental groups (I, II, III and IV). Groups (II-IV) were administered with DOCA (20 mg/kg in 5% DMSO) intraperitoneally and drinking water was replaced by 2% NaCl. […] At the end of this experimental period SAP, DAP and MAP were measured. The results are tabulated below in Tables 4A, 4B and 4C, respectively, and are plotted in FIGS. 4a, 4b and 4c. Additionally, the levels of oxidative stress biomarkers, superoxide dismutase (SOD) and thiobarbituric acid (TBARs)s in heart and aortic tissue were also measured (Cayman commercial kit). The results are tabulated in Table 5 and plotted in FIGS. 5a and 5b (TBAR level) and 6a and 6b (SOD level).
# [5] = system: Triton WR-1339 induced hyperlipidaemic rats; assay: TBAR and SOD level in hepatic tissue, Triton WR-1339 induced hyperlipidemia; type: in vivo, rat
# Description: Wistar albino male rats were divided into four experimental groups (I, II, III and IV). Groups II-IV were treated with intraperitoneal injection of Triton WR-1339 (200 mg/kg in 2% gum acacia) in 12 h fasted rats to induce hyperlipidemia. Group III and IV were orally administered with Mebeverine twice daily for 3 days at 10 mg/kg and 20 mg/kg. After 48 h, induction of hyperlipidemia blood serum was investigated for total cholesterol and triglycerides. Blood samples were collected from all experimental rats on day 6 (4 days after start of treatment), and, subsequently, serum was separated for analysis of serum lipid profile parameters and CRI/AI. Liver was excised and stored at −80° C. until biochemical parameters in hepatic tissue samples were analysed. The results are tabulated below in Table 6 and plotted in FIGS. 7 (a-e) and 8.
# In addition, the effect on oxidative stress markers on hepatic tissue were also observed. The results are shown in Table 7 and plotted in FIGS. 9 and 10.
smiles,measurement,setting,value
CCN(CCCCOC(=O)c1ccc(OC)c(OC)c1)C(C)Cc1ccc(OC)cc1 (stereo not drawn) [Mebeverine],% relaxation,[1]; Mebeverine conc 10^−4 nM (maximal relaxant effect),79.3±0.01% and 79.3%
same,% relaxation,[1]; Mebeverine conc 10^−5 nM,71.1%
same,% relaxation,[1]; Mebeverine conc 10^−6 nM,64.9%
same,% relaxation,[1]; Mebeverine conc 10^−7 nM,52.2%
same,% relaxation,[1]; Mebeverine conc 10^−8 nM,23.9%
same,% relaxation,[1]; Mebeverine conc 10^−9 nM,14.5%
same,DAP,"[2]; 10 mg/kg twice daily, D 0",189 ± 13.43 mm Hg
same,MAP,"[2]; 10 mg/kg twice daily, D 0",200 ± 8.40 mm Hg
same,SAP,"[2]; 10 mg/kg twice daily, D 0",213 ± 6.360 mm Hg
same,DAP,"[2]; 10 mg/kg twice daily, D 3",168 ± 6.86 mm Hg
same,MAP,"[2]; 10 mg/kg twice daily, D 3",182 ± 12.02 mm Hg
same,SAP,"[2]; 10 mg/kg twice daily, D 3",208 ± 6.970 mm Hg
same,DAP,"[2]; 10 mg/kg twice daily, D 4",95 ± 11.70 mm Hg
same,MAP,"[2]; 10 mg/kg twice daily, D 4",110 ± 16.78 mm Hg
same,SAP,"[2]; 10 mg/kg twice daily, D 4",146 ± 5.370 mm Hg
same,DAP,"[2]; 10 mg/kg twice daily, D 5",92 ± 4.24 mm Hg
same,MAP,"[2]; 10 mg/kg twice daily, D 5",108 ± 1.07 mm Hg
same,SAP,"[2]; 10 mg/kg twice daily, D 5",140 ± 2.120 mm Hg
same,DAP,"[2]; 20 mg/kg twice daily, D 0",152 ± 1.40 mm Hg
same,MAP,"[2]; 20 mg/kg twice daily, D 0",170 ± 4.30 mm Hg
same,SAP,"[2]; 20 mg/kg twice daily, D 0",193 ± 3.530 mm Hg
same,DAP,"[2]; 20 mg/kg twice daily, D 3",109 ± 28.80 mm Hg
same,MAP,"[2]; 20 mg/kg twice daily, D 3",128 ± 7.07 mm Hg
same,SAP,"[2]; 20 mg/kg twice daily, D 3",147 ± 5.600 mm Hg
same,DAP,"[2]; 20 mg/kg twice daily, D 4",86 ± 1.70 mm Hg
same,MAP,"[2]; 20 mg/kg twice daily, D 4",98 ± 1.51 mm Hg
same,SAP,"[2]; 20 mg/kg twice daily, D 4",123 ± 7.28 mm Hg
same,DAP,"[2]; 20 mg/kg twice daily, D 5",82 ± 3.53 mm Hg
same,MAP,"[2]; 20 mg/kg twice daily, D 5",92 ± 2.82 mm Hg
same,SAP,"[2]; 20 mg/kg twice daily, D 5",119 ± 7.07 mm Hg
same,Effect on high blood pressure (in words),"[2]; both 10 mg/kg and 20 mg/kg, P<0.001",reduces the high blood pressure
same,DAP,"[3]; 10 mg/kg orally, D 0",168 ± 10.60 mm Hg
same,MAP,"[3]; 10 mg/kg orally, D 0",179 ± 7.63 mm Hg
same,SAP,"[3]; 10 mg/kg orally, D 0",213 ± 2.82 mm Hg
same,DAP,"[3]; 10 mg/kg orally, D 3",156 ± 9.89 mm Hg
same,MAP,"[3]; 10 mg/kg orally, D 3",170 ± 0.52 mm Hg
same,SAP,"[3]; 10 mg/kg orally, D 3",187 ± 8.48 mm Hg
same,DAP,"[3]; 10 mg/kg orally, D 4",101 ± 1.52 mm Hg
same,MAP,"[3]; 10 mg/kg orally, D 4",114 ± 6.08 mm Hg
same,SAP,"[3]; 10 mg/kg orally, D 4",140 ± 8.00 mm Hg
same,DAP,"[3]; 10 mg/kg orally, D 5",84 ± 1.06 mm Hg
same,MAP,"[3]; 10 mg/kg orally, D 5",99 ± 0.77 mm Hg
same,SAP,"[3]; 10 mg/kg orally, D 5",108 ± 1.41 mm Hg
same,DAP,"[3]; 20 mg/kg orally, D 0",185 ± 3.50 mm Hg
same,MAP,"[3]; 20 mg/kg orally, D 0",199 ± 6.54 mm Hg
same,SAP,"[3]; 20 mg/kg orally, D 0",226 ± 4.94 mm Hg
same,DAP,"[3]; 20 mg/kg orally, D 3",128 ± 7.07 mm Hg
same,MAP,"[3]; 20 mg/kg orally, D 3",140 ± 1.71 mm Hg
same,SAP,"[3]; 20 mg/kg orally, D 3",166 ± 6.36 mm Hg
same,DAP,"[3]; 20 mg/kg orally, D 4",83 ± 5.13 mm Hg
same,MAP,"[3]; 20 mg/kg orally, D 4",96 ± 7.57 mm Hg
same,SAP,"[3]; 20 mg/kg orally, D 4",114 ± 10.01 mm Hg
same,DAP,"[3]; 20 mg/kg orally, D 5",72 ± 0.70 mm Hg
same,MAP,"[3]; 20 mg/kg orally, D 5",86 ± 0.63 mm Hg
same,SAP,"[3]; 20 mg/kg orally, D 5",98 ± 1.09 mm Hg
same,SOD Level,"[4]; Aortic tissue, 10 mg/kg",70.20 ± 0.28 U/g tissue
same,TBAR level,"[4]; Aortic tissue, 10 mg/kg",0.87 ± 0.02 nmol/mg protein
same,SOD Level,"[4]; Aortic tissue, 20 mg/kg",90.21 ± 0.21 U/g tissue
same,TBAR level,"[4]; Aortic tissue, 20 mg/kg",0.71 ± 0.03 nmol/mg protein
same,SOD Level,"[4]; Heart tissue, 10 mg/kg",73.04 ± 0.29 U/g tissue
same,TBAR level,"[4]; Heart tissue, 10 mg/kg",0.88 ± 0.03 nmol/mg protein
same,SOD Level,"[4]; Heart tissue, 20 mg/kg",86.24 ± 0.37 U/g tissue
same,TBAR level,"[4]; Heart tissue, 20 mg/kg",0.68 ± 0.01 nmol/mg protein
same,SOD activity (in words),[4]; aortic and heart tissue,significant dose dependent increase
same,TBARs concentration (in words),[4]; aortic and heart tissue,significant dose dependent decrease
same,SOD,[5]; 10 mg/kg,65.13 ± 0.22 U/g protein
same,TBAR,[5]; 10 mg/kg,0.78 ± 0.01 nmol/mg protein
same,SOD,[5]; 20 mg/kg,87.27 ± 0.30 U/g protein
same,TBAR,[5]; 20 mg/kg,0.70 ± 0.01 nmol/mg protein
